Reference: patent US12281149B2, “Modulators of G-protein coupled receptors” (priority 2021, dated 2025)
pEC50: −log10 of the molar value. *1 amine or outer side, *2 acyl side, *3 side chain or, on linkers, in order; H or OH if unused. Where a SMILES comes first, the peptide text is derived from it. Side-chain parts run from the residue outwards. [ ]: non-standard residue; d: D form. The star is where a group is joined. Isobutyryl(2-(3-CN-5-F-Ph)) = CC(C)(C(=O)*)c1cc(F)cc(C#N)c1; C20 diacid = O=C(O)CCCCCCCCCCCCCCCCCCC(=O)*; αMePhe(2-F) = C[C@](N)(Cc1ccccc1F)C(=O)O; γGlu = O=C(O)[C@H](CCC(=O)[*:2])N[*:1]; X38 = CC(C)(C(=O)*)c1cc(O)cc(F)c1; X18 = O=C(C1(c2cccc(F)c2)CCCC1)*; X46 = O=C(C1(c2ccccc2)CCOCC1)*; αMeL = CC(C)C[C@](C)(N)C(=O)O; Orn = NCCC[C@H](N)C(=O)O; AEEA = NCCOCCOCC(=O)O; Aib = CC(C)(N)C(=O)O; βAla = NCCC(=O)O

Legend:
Assay type in all cases: cell-based
GLP-1 receptor [1] = molecular target: T1, GLP-1 receptor (Homo sapiens, UniProt P43220); assay: PathHunter β-arrestin assay, GLP-1 receptor; set-up: host or cells: PathHunter CHO-K1 GLP1R β-Arrestin Cell Line; details: β-arrestin-2 recruitment, PathHunter CHO-K1 GLP1R β-Arrestin Cell Line, 90 min at 37° C.; normalized to GLP-1; read-out: GLP-1R β Arrestin EC50
T1 sequence (P43220 24-463): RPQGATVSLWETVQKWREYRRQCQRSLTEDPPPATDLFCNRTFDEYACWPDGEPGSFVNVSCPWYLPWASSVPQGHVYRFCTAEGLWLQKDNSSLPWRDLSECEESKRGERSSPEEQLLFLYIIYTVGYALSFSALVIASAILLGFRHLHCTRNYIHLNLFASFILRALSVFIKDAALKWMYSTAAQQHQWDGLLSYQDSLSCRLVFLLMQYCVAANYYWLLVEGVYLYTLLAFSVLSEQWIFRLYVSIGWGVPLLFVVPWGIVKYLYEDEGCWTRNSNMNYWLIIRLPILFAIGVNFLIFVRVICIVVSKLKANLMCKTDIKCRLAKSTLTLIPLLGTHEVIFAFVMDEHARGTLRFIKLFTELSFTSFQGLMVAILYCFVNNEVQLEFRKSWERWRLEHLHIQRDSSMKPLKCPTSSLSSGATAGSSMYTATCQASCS
Procedure: (§1) β-arrestin-2 recruitment for GLP-1 receptor or GIP receptor was measured using the DiscoverX PathHunter Detection Kit and PathHunter® CHO-K1 GLPIR β-Arrestin Cell Line or PathHunter® CHO-K1 GIPR β-Arrestin Cell Line, respectively). Briefly, cells were grown in Ham's F12 Nutrient Mix with 10% FBS and lifted with Cell dissociation buffer, Enzyme free, PBS based (ThermoFisher). Harvested cells were pelleted and resuspended in Assay Complete Cell Plating Reagent 2 and 5000 cells per well were plated in tissue culture treated 384-well small volume white assay plates. Plates were then incubated at 37° C. and 5% CO2 overnight. The media was then replaced with fresh Assay Complete Cell Plating Reagent 2. Cells were then treated with 10 nl compound in DMSO using an ECHO 550 acoustic dispenser (Labcyte) in a 20-point dose response format in duplicate for 90 min at 37° C. The assay was then completed according to the manufacturer's instructions. Luminescence was measured using a Perkin Elmer Envision plate reader. Raw data was normalized to the maximum signal from GLP-1 or GIP (high) and DMSO (low). Dose response curves were analyzed using GraphPad Prism 9.0.

GLP-1 receptor [2] = molecular target: T1, GLP-1 receptor; assay: HitHunter cAMP assay, GLP-1 receptor; details: for pEC50: CHO cells stably expressing human GLP-1 receptor, cAMP accumulation, 30 min, read-out: EC50 GLP-1R; for Emax: CHO cells, cAMP, normalized to maximum signal from GLP-1 (high) and DMSO (low), read-out: Emax GLP-1R
GIP receptor [3] = molecular target: T2, GIP receptor (Homo sapiens, UniProt P48546); assay: HitHunter cAMP assay, GIP receptor; details: for pEC50: CHO cells stably expressing GIP receptor, cAMP accumulation, 30 min, read-out: EC50 GIP-1R; for Emax: CHO cells, cAMP, normalized to maximum signal from GIP (high) and DMSO (low), read-out: Emax GIP-1R
T2 sequence (P48546 22-466): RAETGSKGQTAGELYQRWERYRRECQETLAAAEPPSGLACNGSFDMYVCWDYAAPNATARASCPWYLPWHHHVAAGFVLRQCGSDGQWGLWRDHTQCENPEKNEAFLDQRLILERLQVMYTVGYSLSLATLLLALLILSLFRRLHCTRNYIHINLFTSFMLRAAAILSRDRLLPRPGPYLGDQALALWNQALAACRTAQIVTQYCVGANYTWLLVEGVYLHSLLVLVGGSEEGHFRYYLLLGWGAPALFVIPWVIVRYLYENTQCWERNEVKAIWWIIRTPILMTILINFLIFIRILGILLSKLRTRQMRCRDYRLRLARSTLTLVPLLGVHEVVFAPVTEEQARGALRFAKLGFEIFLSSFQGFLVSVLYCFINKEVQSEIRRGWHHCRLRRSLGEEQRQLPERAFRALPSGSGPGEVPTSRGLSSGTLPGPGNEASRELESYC

GIP receptor [4] = molecular target: T2, GIP receptor; assay: PathHunter β-arrestin assay, GIP receptor; set-up: host or cells: PathHunter CHO-K1 GIPR β-Arrestin Cell Line; details: β-arrestin-2 recruitment, PathHunter CHO-K1 GIPR β-Arrestin Cell Line, 90 min at 37° C.; normalized to GIP; read-out: GIPR β Arrestin EC50
Procedure: as §1

| Compound | pEC50 (GLP-1 receptor [1]) | pEC50 (GLP-1 receptor [2]) | Emax (GLP-1 receptor [2]) [%] | pEC50 (GIP receptor [3]) | Emax (GIP receptor [3]) [%] | pEC50 (GIP receptor [4]) |
| --- | --- | --- | --- | --- | --- | --- |
| CC[C@H](C)[C@H](NC(=O)[C@H](CC(C)C)NC(=O)[C@H](Cc1c[nH]c2ccccc12)NC(=O)[C@H](CCC(N)=O)NC(=O)[C@@H](NC(=O)[C@H](Cc1ccccc1)NC(=O)[C@H](C)NC(=O)[C@H](CCCCNC(=O)COCCOCCNC(=O)COCCOCCNC(=O)CC[C@H](NC(=O)CCCCCCCCCCCCCCCCCCC(=O)O)C(=O)O)NC(=O)[C@H](CCC(N)=O)NC(=O)[C@H](C)NC(=O)[C@@H](NC(=O)[C@H](CCCCN)NC(=O)[C@H](CC(=O)O)NC(=O)[C@H](CC(C)C)NC(=O)C(C)(C)NC(=O)[C@@H](NC(=O)[C@H](CO)NC(=O)[C@H](Cc1ccc(O)cc1)NC(=O)[C@H](CC(=O)O)NC(=O)[C@H](CO)NC(=O)[C@@H](NC(=O)[C@H](Cc1ccccc1)NC(=O)[C@@H](NC(=O)CNC(=O)[C@H](CCC(=O)O)NC(=O)CCNC(=O)C(C)(C)c1cc(O)cc(F)c1)[C@@H](C)O)[C@@H](C)O)[C@@H](C)CC)[C@@H](C)CC)C(C)C)C(=O)N[C@@H](C)C(=O)NCC(=O)NCC(=O)N1CCC[C@H]1C(=O)N[C@@H](CO)C(=O)N[C@@H](CO)C(=O)NCC(=O)N[C@@H](C)C(=O)N1CCC[C@H]1C(=O)N1CCC[C@H]1C(=O)N1CCC[C@H]1C(=O)N[C@@H](CO)C(N)=O [Compound 117] ({X38-βAla}-EGTFTSDYSI[Aib]LDKIAQK([AEEA-AEEA-γGlu-C20 diacid])AFVQWLIAGGPSSGAPPPS-NH2) | < 6.00 | 9.00 to 10.00 | 96 | 8.00 to 9.00 | 100 | < 6.00 |
| CC[C@H](C)[C@H](NC(=O)[C@H](CC(C)C)NC(=O)[C@H](Cc1c[nH]c2ccccc12)NC(=O)[C@H](CCC(N)=O)NC(=O)[C@@H](NC(=O)[C@H](Cc1ccccc1)NC(=O)[C@H](C)NC(=O)[C@H](CCCCNC(=O)COCCOCCNC(=O)COCCOCCNC(=O)CC[C@H](NC(=O)CCCCCCCCCCCCCCCCCCC(=O)O)C(=O)O)NC(=O)[C@H](CCC(N)=O)NC(=O)[C@H](C)NC(=O)[C@@H](NC(=O)[C@H](CCCCN)NC(=O)[C@H](CC(=O)O)NC(=O)[C@H](CC(C)C)NC(=O)C(C)(C)NC(=O)[C@@H](NC(=O)[C@H](CO)NC(=O)[C@H](Cc1ccc(O)cc1)NC(=O)[C@H](CC(=O)O)NC(=O)[C@H](CO)NC(=O)[C@@H](NC(=O)[C@](C)(Cc1ccccc1F)NC(=O)[C@@H](NC(=O)CNC(=O)[C@H](CCC(=O)O)NC(=O)CCNC(=O)C1(c2ccccc2)CCOCC1)[C@@H](C)O)[C@@H](C)O)[C@@H](C)CC)[C@@H](C)CC)C(C)C)C(=O)N[C@@H](C)C(=O)NCC(=O)NCC(=O)N1CCC[C@H]1C(=O)N[C@@H](CO)C(=O)N[C@@H](CO)C(=O)NCC(=O)N[C@@H](C)C(=O)N1CCC[C@H]1C(=O)N1CCC[C@H]1C(=O)N1CCC[C@H]1C(=O)N[C@@H](CO)C(N)=O [Compound 178] ({X46-βAla}-EGT[αMePhe(2-F)]TSDYSI[Aib]LDKIAQK([AEEA-AEEA-γGlu-C20 diacid])AFVQWLIAGGPSSGAPPPS-NH2) | < 6.00 | 9.00 to 10.00 | 98 | 9.00 to 10.00 | 105 | > 6.00 |
| CC[C@H](C)[C@H](NC(=O)[C@H](CC(C)C)NC(=O)[C@H](Cc1c[nH]c2ccccc12)NC(=O)[C@H](CCC(N)=O)NC(=O)[C@@H](NC(=O)[C@H](Cc1ccccc1)NC(=O)[C@H](C)NC(=O)[C@H](CCCCNC(=O)COCCOCCNC(=O)COCCOCCNC(=O)CC[C@H](NC(=O)CCCCCCCCCCCCCCCCCCC(=O)O)C(=O)O)NC(=O)[C@H](CCC(N)=O)NC(=O)[C@H](C)NC(=O)[C@@H](NC(=O)[C@H](CCCCN)NC(=O)[C@H](CC(=O)O)NC(=O)[C@H](CC(C)C)NC(=O)C(C)(C)NC(=O)[C@@H](NC(=O)[C@H](CO)NC(=O)[C@H](Cc1ccc(O)cc1)NC(=O)[C@H](CC(=O)O)NC(=O)[C@H](CO)NC(=O)[C@@H](NC(=O)[C@H](Cc1ccccc1)NC(=O)[C@@H](NC(=O)CNC(=O)[C@H](CCC(=O)O)NC(=O)CCNC(=O)C1(c2cccc(F)c2)CCCC1)[C@@H](C)O)[C@@H](C)O)[C@@H](C)CC)[C@@H](C)CC)C(C)C)C(=O)N[C@@H](C)C(=O)NCC(=O)NCC(=O)N1CCC[C@H]1C(=O)N[C@@H](CO)C(=O)N[C@@H](CO)C(=O)NCC(=O)N[C@@H](C)C(=O)N1CCC[C@H]1C(=O)N1CCC[C@H]1C(=O)N1CCC[C@H]1C(=O)N[C@@H](CO)C(N)=O [Compound 214] ({X18-βAla}-EGTFTSDYSI[Aib]LDKIAQK([AEEA-AEEA-γGlu-C20 diacid])AFVQWLIAGGPSSGAPPPS-NH2) | < 6.00 | 9.00 to 10.00 | 97 | 9.00 to 10.00 | 101 | < 6.00 |
| CC[C@H](C)[C@H](NC(=O)[C@H](CC(C)C)NC(=O)[C@H](Cc1ccc(O)cc1)NC(=O)[C@@H](CCC(=O)O)NC(=O)[C@@H](NC(=O)[C@H](Cc1ccccc1)NC(=O)[C@H](CCC(=O)O)NC(=O)C(C)(C)NC(=O)[C@H](CCC(N)=O)NC(=O)[C@H](C)NC(=O)[C@H](CCCCNC(=O)COCCOCCNC(=O)COCCOCCNC(=O)CC[C@H](NC(=O)CCCCCCCCCCCCCCCCCCC(=O)O)C(=O)O)NC(=O)[C@H](CCCN)NC(=O)[C@H](CC(=O)O)NC(=O)[C@H](CC(C)C)NC(=O)[C@](C)(CC(C)C)NC(=O)[C@@H](NC(=O)[C@H](CO)NC(=O)[C@H](Cc1ccc(O)cc1)NC(=O)[C@H](CC(=O)O)NC(=O)[C@H](CO)NC(=O)[C@@H](NC(=O)[C@H](Cc1ccccc1)NC(=O)[C@@H](NC(=O)CNC(=O)[C@H](CCC(=O)O)NC(=O)CCNC(=O)C(C)(C)c1cc(F)cc(C#N)c1)[C@@H](C)O)[C@@H](C)O)[C@@H](C)CC)[C@@H](C)CC)C(=O)N[C@@H](CCC(=O)O)C(=O)NCC(=O)NCC(=O)N1CCC[C@H]1C(=O)N[C@@H](CO)C(=O)N[C@@H](CO)C(=O)NCC(=O)N[C@@H](C)C(=O)N1CCC[C@H]1C(=O)N1CCC[C@H]1C(=O)N1CCC[C@H]1C(=O)N[C@@H](CO)C(N)=O [Compound 134] ({Isobutyryl(2-(3-CN-5-F-Ph))-βAla}-EGTFTSDYSI[αMeL]LD[Orn]K([AEEA-AEEA-γGlu-C20 diacid])AQ[Aib]EFI[dE]YLIEGGPSSGAPPPS-NH2) | < 6.00 | 9.00 to 10.00 | 102 | 8.00 to 9.00 | 109 | < 6.00 |
| CC[C@H](C)[C@H](NC(=O)[C@H](CO)NC(=O)[C@H](Cc1ccc(O)cc1)NC(=O)[C@H](CC(=O)O)NC(=O)[C@H](CO)NC(=O)[C@@H](NC(=O)[C@H](Cc1ccccc1)NC(=O)[C@@H](NC(=O)CNC(=O)[C@H](CCC(=O)O)NC(=O)CCNC(=O)C(C)(C)c1cc(F)cc(C#N)c1)[C@@H](C)O)[C@@H](C)O)C(=O)N[C@@H](Cc1ccc(O)cc1)C(=O)N[C@@H](CC(C)C)C(=O)N[C@@H](CC(=O)O)C(=O)N[C@@H](CCCCN)C(=O)N[C@@H](CCC(N)=O)C(=O)N[C@@H](C)C(=O)N[C@@H](C)C(=O)NC(C)(C)C(=O)N[C@@H](CCC(=O)O)C(=O)N[C@@H](Cc1ccccc1)C(=O)N[C@H](C(=O)N[C@@H](CC(N)=O)C(=O)N[C@@H](Cc1c[nH]c2ccccc12)C(=O)N[C@@H](CC(C)C)C(=O)N[C@@H](CC(C)C)C(=O)N[C@@H](C)C(=O)NCC(=O)NCC(=O)N1CCC[C@H]1C(=O)N[C@@H](CO)C(=O)N[C@@H](CO)C(=O)NCC(=O)N[C@@H](C)C(=O)N1CCC[C@H]1C(=O)N1CCC[C@H]1C(=O)N1CCC[C@H]1C(=O)N[C@@H](CO)C(=O)N[C@@H](CCCCNC(=O)COCCOCCNC(=O)COCCOCCNC(=O)CC[C@H](NC(=O)CCCCCCCCCCCCCCCCCCC(=O)O)C(=O)O)C(N)=O)C(C)C [Compound 187] | < 6.00 | 8.00 to 9.00 | 95 | 7.00 to 8.00 | 95 | < 6.00 |
